Laboratory results: PubChem BioAssay (NCI)
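Step 1: Grow cells in 96-well plates. Step 2: Expose to compound for 48 hours at 5 concentrations. Step 3: Interpolate endpoints linearly; if unreached, use highest concentration. At the TGI there is no net growth.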

Assays:
Assay in all cases: NCI anticancer screen, dose series, 48 h
[1] = test system: TK-10 renal
[2] = test system: HT29 colon
[3] = test system: IGROV1 ovarian
[4] = test system: COLO 205 colon
[5] = test system: RPMI-8226 leukemia
[6] = test system: HOP-92 NSCLC
[7] = test system: SF-539 CNS
[8] = test system: DMS 273 small cell lung
[9] = test system: SNB-19 CNS
[10] = test system: SN12C renal
[11] = test system: SR leukemia
[12] = test system: LOX IMVI melanoma
[13] = test system: KM12 colon
[14] = test system: MALME-3M melanoma
[15] = test system: SK-MEL-28 melanoma
[16] = test system: HCT-116 colon
[17] = test system: SK-MEL-5 melanoma
[18] = test system: SNB-78 CNS
[19] = test system: K-562 leukemia
[20] = test system: MOLT-4 leukemia
[21] = test system: HL-60(TB) leukemia
[22] = test system: KM20L2 colon
[23] = test system: A549 NSCLC
[24] = test system: OVCAR-3 ovarian
[25] = test system: DMS 114 small cell lung
[26] = test system: OVCAR-5 ovarian
[27] = test system: ACHN renal
[28] = test system: NCI-H460 lung
[29] = test system: U251 CNS
[30] = test system: SK-OV-3 ovarian
[31] = test system: NCI-H226 lung
[32] = test system: SW-620 colon
[33] = test system: M19-MEL melanoma
[34] = test system: 786-0 renal
[35] = test system: SK-MEL-2 melanoma
[36] = test system: DLD-1 colon
[37] = test system: LXFL 529 NSCLC
[38] = test system: HCC-2998 colon
[39] = test system: OVCAR-8 ovarian
[40] = test system: M14 melanoma
[41] = test system: CCRF-CEM leukemia
[42] = test system: NCI-H522 lung
[43] = test system: HOP-62 NSCLC
[44] = test system: UO-31 renal
[45] = test system: OVCAR-4 ovarian
[46] = test system: SF-268 CNS
[47] = test system: HCT-15 colon
[48] = test system: UACC-62 melanoma
[49] = test system: UACC-257 melanoma
[50] = test system: XF 498 CNS
[51] = test system: NCI-H23 lung
[52] = test system: SF-295 CNS
[53] = test system: SNB-75 CNS
[54] = test system: CAKI-1 renal
[55] = test system: RXF 393 renal
[56] = test system: EKVX NSCLC
[57] = test system: DU-145 prostate
[58] = test system: MCF7 breast
[59] = test system: BT-549 breast
[60] = test system: MDA-N
[61] = test system: NCI/ADR-RES ovarian
[62] = test system: MDA-MB-435
[63] = test system: T-47D breast
[64] = test system: PC-3 prostate
[65] = test system: MDA-MB-231 breast
[66] = test system: A498 renal
[67] = test system: HS 578T breast

COc1cc(C(=O)O)cc2c1[nH]c1ccccc12
TGI [1]: > 25 µM
TGI [2]: > 25 µM
TGI [3]: > 25 µM
TGI [4]: > 25 µM
TGI [5]: > 25 µM
TGI [6]: > 25 µM
TGI [7]: > 25 µM
TGI [8]: > 25 µM
TGI [9]: > 25 µM
TGI [10]: > 25 µM
TGI [11]: > 25 µM
TGI [12]: > 25 µM
TGI [13]: > 25 µM
TGI [14]: > 25 µM
TGI [15]: > 25 µM
TGI [16]: > 25 µM
TGI [17]: > 25 µM
TGI [18]: > 25 µM
TGI [19]: > 25 µM
TGI [20]: > 25 µM
TGI [21]: > 25 µM
TGI [22]: > 25 µM
TGI [23]: > 25 µM
TGI [24]: > 25 µM
TGI [25]: > 25 µM
TGI [26]: > 25 µM
TGI [27]: > 25 µM
TGI [28]: > 25 µM
TGI [29]: > 25 µM
TGI [30]: > 25 µM
TGI [31]: > 25 µM
TGI [32]: > 25 µM
TGI [33]: > 25 µM
TGI [34]: > 25 µM
TGI [35]: > 25 µM
TGI [36]: > 25 µM
TGI [37]: > 25 µM
TGI [38]: > 25 µM
TGI [39]: > 25 µM
TGI [40]: > 25 µM
TGI [41]: > 25 µM
TGI [42]: > 25 µM
TGI [43]: > 25 µM
TGI [44]: > 25 µM
TGI [45]: > 25 µM
TGI [46]: > 25 µM
TGI [47]: > 25 µM
TGI [48]: > 25 µM

CC(=O)CC(=O)ON(C)C(C)=O
TGI [1]: > 100 µM
TGI [2]: > 100 µM
TGI [3]: > 100 µM
TGI [4]: > 100 µM
TGI [5]: > 100 µM
TGI [7]: > 100 µM
TGI [8]: > 100 µM
TGI [9]: > 100 µM
TGI [10]: > 100 µM
TGI [11]: > 100 µM
TGI [12]: > 100 µM
TGI [13]: > 100 µM
TGI [49]: 56.4 µM
TGI [14]: > 100 µM
TGI [15]: > 100 µM
TGI [16]: > 100 µM
TGI [17]: > 100 µM
TGI [18]: > 100 µM
TGI [19]: > 100 µM
TGI [20]: > 100 µM
TGI [21]: > 100 µM
TGI [50]: > 100 µM
TGI [22]: > 100 µM
TGI [23]: > 100 µM
TGI [24]: > 100 µM
TGI [51]: > 100 µM
TGI [25]: > 100 µM
TGI [26]: > 100 µM
TGI [52]: > 100 µM
TGI [27]: > 100 µM
TGI [28]: > 100 µM
TGI [29]: > 100 µM
TGI [30]: > 100 µM
TGI [31]: > 100 µM
TGI [32]: > 100 µM
TGI [33]: > 100 µM
TGI [34]: > 100 µM
TGI [36]: > 100 µM
TGI [53]: > 100 µM
TGI [37]: > 100 µM
TGI [38]: > 100 µM
TGI [54]: > 100 µM
TGI [39]: > 100 µM
TGI [40]: > 100 µM
TGI [41]: > 100 µM
TGI [42]: > 100 µM
TGI [43]: > 100 µM
TGI [44]: > 100 µM
TGI [55]: > 100 µM
TGI [45]: 89.1 µM
TGI [46]: > 100 µM
TGI [48]: > 100 µM

O=[N+]([O-])c1ccc(CSc2c3ccccc3nc3ccccc23)cc1
TGI [1]: 17.4 µM
TGI [56]: 34.7 µM
TGI [2]: 6.36 µM
TGI [3]: 7.66 µM
TGI [57]: 5.92 µM
TGI [4]: 16.9 µM
TGI [5]: 9.29 µM
TGI [58]: > 100 µM
TGI [6]: > 37.3 µM
TGI [7]: 9.43 µM
TGI [59]: 33.4 µM
TGI [60]: 23.1 µM
TGI [9]: 37.4 µM
TGI [10]: 9.81 µM
TGI [11]: > 27.1 µM
TGI [12]: 10.6 µM
TGI [13]: 16.2 µM
TGI [49]: 10.5 µM
TGI [14]: 6.04 µM
TGI [15]: 13.5 µM
TGI [16]: 7.14 µM
TGI [17]: 30.5 µM
TGI [19]: > 34.9 µM
TGI [61]: 52.1 µM
TGI [20]: > 21.2 µM
TGI [21]: 22.8 µM
TGI [62]: 14.3 µM
TGI [23]: 51.4 µM
TGI [24]: 14.4 µM
TGI [51]: 25.5 µM
TGI [26]: 32.5 µM
TGI [63]: 4.18 µM
TGI [52]: 41.7 µM
TGI [27]: 12.9 µM
TGI [28]: 46.9 µM
TGI [29]: 20.9 µM
TGI [30]: 41.4 µM
TGI [31]: 35.8 µM
TGI [32]: > 24.4 µM
TGI [34]: 4.22 µM
TGI [35]: 32.3 µM
TGI [64]: 20 µM
TGI [53]: 33.1 µM
TGI [38]: 32.7 µM
TGI [54]: 29.6 µM
TGI [39]: 10.8 µM
TGI [40]: 16.6 µM
TGI [41]: > 22.9 µM
TGI [42]: 3.62 µM
TGI [43]: 35.7 µM
TGI [44]: 17 µM
TGI [65]: 27.4 µM
TGI [66]: 58.8 µM
TGI [55]: 18.5 µM
TGI [45]: 31.1 µM
TGI [46]: 22.8 µM
TGI [47]: 27.5 µM
TGI [48]: 29.3 µM
TGI [67]: 11.3 µM
